Source: publication PMC9456400 (International Journal of Molecular Sciences, 2022)

Experiments:
Huh-7 cells = assay: UHPLC-ESI-QTOF-MS/MS lipidomics; type: cell-based, human; conditions: Huh-7 cells; SBN 100 µmol/L, lorlatinib 1 µmol/L; median
Description: We then questioned whether lorlatinib used at concentrations efficacious against ALK-rearranged lung cancer cells but non-toxic to ALK-negative cells could promote substantial lipidome changes in Huh-7 cells (Figure 1B; Table 1). Accordingly, […], and the lipidome was characterized in a semi-targeted approach using a UHPLC-ESI-QTOF-MS/MS method, in which we matched mass spectra with commercial standards (SPLAH mix), databases such as METLIN-PCDL and Lipid MAPS (accessed on 1 July 2022), as well as corroboration of tentative lipid species upon obtaining their MS/MS spectrum. Representative chromatograms of lipidomic analyses in Huh-7 cells can be found in Figure S1.
Lipid extraction, preparation of external calibration curves, and quality control approaches were carried out as described. Samples (2 μL) were injected directly into a 1290 Infinity UHPLC system coupled with a dual Agilent jet stream ESI source to a 6550 QTOF-MS instrument (Agilent Technologies, Santa Clara, CA, USA). UHPLC-ESI-QTOF-MS conditions, data analysis and indirect quantification of selected lipid species using MassHunter Qualitative Analysis B.07.00 software (Agilent Technologies), and corroboration of the tentative characterization of compound match entities using the Lipid Maps database (www.lipidmaps.org, accessed on 1 July 2022) and targeted MS/MS acquisition on LC-QTOF-MS instrument, have been previously described in detail.
Differentially expressed lipid species from untargeted lipidomic data were analyzed by generating volcano plots indicating statistical significance versus magnitude of fold-change for each lipid species (cutoff of Benjamini–Hochberg corrected p-value < 0.05 and log2 fold-change > 1 or […]).

[1] = cited from earlier work
[2] = test system: ALK-negative A549 NSCLC cells; assay: MTT cell viability assay; conditions: read-out: IC50 (cell viability)
Description: (§1) Cell viability effects of lorlatinib were determined using the colorimetric MTT (3-4,5-dimethylthiazol-2-yl-2,5-diphenyl-tetrazolium bromide) reduction assay. Dose–response curves to graded concentrations of lorlatinib were plotted as a percentage of the control cell absorbance, which was obtained from control cells containing the vehicle (DMSO v/v) processed simultaneously. For each treatment, cell viability was evaluated using the following equation: (OD570 of the treated sample/OD570 of the untreated sample) × 100.

[3] = test system: H2228 NSCLC cell line (ALK rearrangement variant 3a/b); assay: MTT cell viability assay; conditions: read-out: IC50 (cell viability)
Description: as §1

[4] = test system: H3122 NSCLC cell line (ALK rearrangement variant 1); assay: MTT cell viability assay; conditions: read-out: IC50 (cell viability)
Description: as §1

[5] = pooled safety analysis (n = 295) ref 14, 15

Structure (SMILES): C[C@H]1Oc2cc(cnc2N)-c2c(nn(C)c2C#N)CN(C)C(=O)c2ccc(F)cc21 [lorlatinib, (10R)-7-amino-12-fluoro-2,10,16-trimethyl-15-oxo-10,15,16,17-tetrahydro-2H-8,4-(metheno)pyrazolo [4,3-h][2,5,11]-benzoxadiazacyclotetradecine-3-carbonitrile]
- Relative concentration of PC 38:6e (Huh-7 cells): 0.353 µmol/mg protein
- Relative concentration of PC 40:4 (Huh-7 cells): 0.298 µmol/mg protein
- Relative concentration of PC 40:4e (Huh-7 cells): 0.087 µmol/mg protein
- Relative concentration of PC 40:5 (Huh-7 cells): 1.883 µmol/mg protein
- Relative concentration of PC 40:6 (Huh-7 cells): 2.981 µmol/mg protein
- Relative concentration of PC 42:4e (Huh-7 cells): 0.056 µmol/mg protein
- Relative concentration of PC 42:5e (Huh-7 cells): 0.118 µmol/mg protein
- Relative concentration of PE 32:0 (Huh-7 cells): 0.231 µmol/mg protein
- Relative concentration of PE 36:4 (Huh-7 cells): 15.311 µmol/mg protein
- Relative concentration of PE 36:5e (Huh-7 cells): 1.339 µmol/mg protein
- Relative concentration of PE 38:5e (Huh-7 cells): 0.649 µmol/mg protein
- Relative concentration of SM 32:0 (Huh-7 cells): 0.350 µmol/mg protein
- Relative concentration of SM 32:1 (Huh-7 cells): 2.087 µmol/mg protein
- Relative concentration of SM 32:2 (Huh-7 cells): 0.032 µmol/mg protein
- Relative concentration of SM 33:1 (Huh-7 cells): 1.877 µmol/mg protein
- Relative concentration of SM 34:1 (Huh-7 cells): 22.397 µmol/mg protein
- Relative concentration of SM 34:2 (Huh-7 cells): 1.973 µmol/mg protein
- Relative concentration of SM 35:0 (Huh-7 cells): 1.702 µmol/mg protein
- Relative concentration of SM 35:1 (Huh-7 cells): 0.803 µmol/mg protein
- Relative concentration of SM 36:0 (Huh-7 cells): 0.297 µmol/mg protein
- Relative concentration of SM 36:1 (Huh-7 cells): 1.764 µmol/mg protein
- Relative concentration of SM 36:2 (Huh-7 cells): 0.702 µmol/mg protein
- Relative concentration of SM 38:1 (Huh-7 cells): 0.595 µmol/mg protein
- Relative concentration of SM 38:2 (Huh-7 cells): 0.151 µmol/mg protein
- Relative concentration of SM 39:1 (Huh-7 cells): 0.210 µmol/mg protein
- Relative concentration of SM 40:0 (Huh-7 cells): 0.286 µmol/mg protein
- Relative concentration of SM 40:1 (Huh-7 cells): 1.575 µmol/mg protein
- Relative concentration of SM 40:2 (Huh-7 cells): 0.891 µmol/mg protein
- Relative concentration of SM 41:1 (Huh-7 cells): 0.637 µmol/mg protein
- Relative concentration of SM 41:2 (Huh-7 cells): 0.065 µmol/mg protein
- Relative concentration of SM 42:1 (Huh-7 cells): 2.064 µmol/mg protein
- Relative concentration of SM 42:2 (Huh-7 cells): 3.149 µmol/mg protein
- Relative concentration of SM 42:3 (Huh-7 cells): 0.805 µmol/mg protein
- Relative concentration of SM 43:1 (Huh-7 cells): 0.128 µmol/mg protein
- Relative concentration of SM 43:2 (Huh-7 cells): 0.358 µmol/mg protein
- Relative concentration of TG 46:0 (Huh-7 cells): 1.549 µmol/mg protein
- Relative concentration of TG 46:1 (Huh-7 cells): 2.111 µmol/mg protein
- Relative concentration of TG 46:2 (Huh-7 cells): 1.025 µmol/mg protein
- Relative concentration of TG 48:0 (Huh-7 cells): 2.372 µmol/mg protein
- Relative concentration of TG 48:1 (Huh-7 cells): 5.318 µmol/mg protein
- Relative concentration of TG 48:2 (Huh-7 cells): 4.451 µmol/mg protein
- Relative concentration of TG 48:3 (Huh-7 cells): 1.146 µmol/mg protein
- Relative concentration of TG 50:0 (Huh-7 cells): 1.142 µmol/mg protein
- Relative concentration of TG 50:1 (Huh-7 cells): 9.399 µmol/mg protein
- Relative concentration of TG 50:2 (Huh-7 cells): 11.302 µmol/mg protein
- Relative concentration of TG 50:3 (Huh-7 cells): 4.462 µmol/mg protein
- Relative concentration of TG 50:4 (Huh-7 cells): 1.054 µmol/mg protein
- Relative concentration of TG 51:2 (Huh-7 cells): 2.969 µmol/mg protein
- Relative concentration of TG 52:1 (Huh-7 cells): 3.455 µmol/mg protein
- Relative concentration of TG 52:2 (Huh-7 cells): 16.188 µmol/mg protein
- Relative concentration of TG 52:3 (Huh-7 cells): 12.354 µmol/mg protein
- Relative concentration of TG 52:4 (Huh-7 cells): 3.787 µmol/mg protein
- Relative concentration of TG 52:5 (Huh-7 cells): 1.312 µmol/mg protein
- Relative concentration of TG 52:6 (Huh-7 cells): 0.708 µmol/mg protein
- Relative concentration of TG 54:2 (Huh-7 cells): 3.515 µmol/mg protein
- Relative concentration of TG 54:3 (Huh-7 cells): 11.096 µmol/mg protein
- Relative concentration of TG 54:4 (Huh-7 cells): 6.556 µmol/mg protein
- Relative concentration of TG 54:5 (Huh-7 cells): 4.411 µmol/mg protein
- Incidence of hypercholesteremia and hypertriglyceridemia ([1]; lung cancer patients): > 80%
- Hyperlipidemia, median time to onset ([1]; patients): 15 days
- Frequency of grade 3 or 4 elevations in total cholesterol and triglycerides (both) ([1]; phase 2 study B7461001 (NCT01970865) ref 2): 16%
- Incidence of hypercholesteremia [1, 5]: 61%
- Incidence of hypertriglyceridemia [1, 5]: 82%
- IC50 [2]: 19000 ± 5000 nM
- IC50 [3]: 900 ± 200 nM
- IC50 [4]: 3 ± 0.2 nM
